Several values for one entry are separate records, joined by “and”; a condition that tells them apart may be missing. Identical values can stand only once. Like-named read-outs stand apart in the source and are kept apart here.
Key:
Friend Leukemia Virus [1] = assay: In vivo inhibition of Friend Leukemia Virus splenomegaly, intravenous 1-2 hours post infection (Example 10); set-up: species or system mice; conditions: Mus musculus, read-out: EC50 for FV-induced splenomegaly
Procedure: (§1) (3) In vivo inhibition of Friend Leukemia Virus Splenomegaly performed as described in Example 1 above except that the compounds were administered intravenously 1-2 hours post infection.
(§2) The results presented above in Table IX are presented as EC50 concentrations. These are the effective concentrations which inhibit 50% of the viruses in micromolar concentrations.

[2] = system: virus budding in virus-producing cells; assay: In vitro inhibition of virus budding: production of defective budded virions (Example 10); assay type: cell-based; conditions: read-out: EC50 for production of defective budded virions
From the text: as §2

Friend Leukemia Virus [3] = assay: Inhibition of Friend Leukemia Virus-induced splenomegaly in mice, compounds intraperitoneally 24 hours after virus (Example 1(a)); assay type: in vivo, BALB/c mice; set-up: Actual Spleen Weight / Average Spleen Weight: unit not given here; conditions: for Spleen weight: single animal, listed as PS
Procedure, shortened: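 BALB/c mice inoculated i.v. with 10^6 FFU Friend virus (spleen homogenate); compounds given i.p. 24 h later at 100 μg once, or 50, 100, 200 μg or 2×100 μg (second dose 24–48 h after first), two mice per group. Spleens weighed at day 10; percent inhibition from average spleen weights relative to negative and positive controls.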

retroviruses = assay: Comparison over two in vitro and one in vivo biological assays (Example 10); conditions: for loss of antiviral activity relative to parent: Example 10, structural comparison
Procedure: In order to investigate the structural features of hypericin which are essential for antiretroviral activity, numerous analogs and precursors of hypericin were examined for activity in two in vitro and one in vivo biological assay.
(§3) (1) Direct inactivation of retroviruses in vitro, performed as in Example 3 above;
as §1

[4] = molecular target: T1, Radiation Leukemia Virus reverse transcriptase (Radiation murine leukemia virus, UniProt P11227); assay: Radiation Leukemia Virus reverse transcriptase assay, supernatants from infected AQR cells (Examples 4 and 9); assay type: biochemical; conditions: Table VIII; for CPM: replicate
T1 construct: the reverse transcriptase of Radiation Leukemia Virus; endogenous in cells
Procedure: (§4) Supernatants (10 ml/tube) from B10.T(6R) cells (Meruelo et al. J. Exp. Med. 147: 470-487, 1978) chronically infected with Radiation Leukemia Virus (RadLV) were obtained by centrifugation of cells in culture at 4° C., 3500 rpm for 15 minutes. The top 2/3 of the supernatant were removed and aliquots were incubated for 30 minutes on ice with the indicated amounts of hypericin or protohypericin. […] Thereafter, supernatants were centrifuged at 100,000×g using a TI70 rotor (Beckman Instruments) for 1 hour at 4° C. The pellet was […] and analyzed for reverse transcriptase activity as follows.
(§5) The reverse transcriptase assay was performed in a volume of 100 microliters containing the following components:
The antiviral activity of HHA was tested using AQR (Bach and Meruelo, J. Exp. Med. 160:270-285, 1984) cells chronically infected with Radiation Leukemia Virus in the reverse transcriptase assay as described in Example 3 above.
The assays were conducted using the same procedure as in Example 3 above, using supernatants from infected AQR cells.

retroviruses (virions) = assay: Direct inactivation of retroviruses (virions) in vitro (Example 10); assay type: biochemical, Radiation Leukemia Virus; conditions: Table IX
Procedure: as §4, §5, §3, §2

Friend Virus = assay: Friend Virus-induced splenomegaly, WIS compounds (Example 8); assay type: in vivo, mice; conditions: for Average % Inhibition / Average Spleen Weight / Actual Spleen Weight: Table VII; for Actual Spleen Weight: single animal
Procedure: The effects of compositions according to the present invention on the increase in spleen size (splenomegaly) of BALB/c mice (Jackson Labs, Bar Harbor, ME) was examined. In these experiments, the virus (10^6 focus forming units--FFU) was inoculated intravenously and 100 micrograms of the compounds indicated in Table II were administered to the mice intraperitoneally 24 hours later. Each compound was administered once to two mice. The animals were sacrificed ten days later and their spleens weighed.
As used in Table II (and subsequent Tables of this Example l(a) and (b), "average percent inhibition" is calculated as follows: [formula] wherein "ASWNC" designates "average spleen weight of negative control"; "ASWE" designates "average spleen weight of experimental (treated) subject"; and "ASWPC" designates "average spleen weight of positive control". Average spleen weight is the numerical average of spleen weights of each experimental group (in Table II each such group includes two members).
The AAB compounds whose synthesis is described above were assayed for antiviral activity. WIS-2, -3, -4, -5 and -6 were tested to determine their biological effects on Friend Virus-induced splenomegaly using the procedure and technique set forth in Example 1 above. The assay results (three mice per group were tested each at different concentrationss of the active composition except for the PBS-negative control wherein two animals per group were used) are reported in Table VII below.

Friend Leukemia Virus [5] = assay: Intravenous co-administration of pseudohypericin with Friend Leukemia Virus, splenomegaly; assay type: in vivo, mouse; conditions: for Spleen Weights: single animal, listed as PS
Procedure: A different experimental design was used involving the simultaneous intravenous co-administration of Ps with the FV complex. In this case, the viral preparation was mixed with Ps at various concentrations and the mixture was injected into the mouse tail vein in a final volume of 0.5 ml. The mice were sacrificed ten days later, their spleens weighed, and the level of inhibition of splenomegaly subsequently determined.
The effect of intravenous co-administration of pseudohypericin (diluted in PBS with 1% EtOH) with FV, on viral-induced splenomegaly.

[6] = FV + PS 5 mcg i.v. co-administration
[7] = FV + PS 20 mcg i.v. co-administration
[8] = FV + PS 50 mcg i.v. co-administration
[9] = FV 2 × 10^5 FFU, PS 80 mcg/mouse
[10] = FV 2 × 10^5 FFU, PS 80 mcg/mouse 2 inject
[11] = FV 10^6 FFU, PS 80 mcg/mouse 2 injections

O=C1c2ccccc2C(=C2c3ccccc3C(=O)c3ccccc32)c2ccccc21 [Compound 36, Bianthrone]
EC50 (Friend Leukemia Virus [1]; i.v. 1-2 hours post infection, Table IX): 98 µM
EC50 ([2]; in vitro, Table IX): > 100 µM
inhibition in vivo at 0.1 mg (Friend Leukemia Virus [3]; Mus musculus, ip, dose 2 × 100 (micrograms) i.p., Table III, read-out: Average Perdosage % Inhibition): 50%
inhibition in vivo at 0.05 mg (Friend Leukemia Virus [3]; Mus musculus, ip, dose 50 (micrograms) i.p., Table III, read-out: Average Perdosage % Inhibition): 52%
inhibition in vivo at 0.1 mg (Friend Leukemia Virus [3]; Mus musculus, ip, dose 100 (micrograms) i.p., Table III, read-out: Average Perdosage % Inhibition): 48%
inhibition in vivo at 0.2 mg (Friend Leukemia Virus [3]; Mus musculus, ip, dose 200 (micrograms) i.p., Table III, read-out: Average Perdosage % Inhibition): 57%
Average Spleen Weight (Friend Leukemia Virus [3]; dose 2 × 100 (micrograms) i.p., Table III): 1.1353
Average Spleen Weight (Friend Leukemia Virus [3]; dose 50 (micrograms) i.p., Table III): 1.0839
Average Spleen Weight (Friend Leukemia Virus [3]; dose 100 (micrograms) i.p., Table III): 1.1575
Average Spleen Weight (Friend Leukemia Virus [3]; dose 200 (micrograms) i.p., Table III): 0.9970
Pooled Average % Inhibition (Friend Leukemia Virus [3]; pooled over 50, 100, 200, 2 × 100 micrograms, Table III): 52%

O=C(O)c1cc(O)c2c(=O)c3c(O)cc(O)c4c5c(O)cc(O)c6c(=O)c7c(O)cc(C(=O)O)c8c1c2c(c34)c(c65)c78 [WIS-1, Hypericin-dicarboxylic acid]
EC50 [2]: > 100 µM
loss of antiviral activity relative to parent (retroviruses): diminished the antiviral activity

CC(=O)Oc1cc(C)c2c3c(C)cc(OC(C)=O)c4cc5c(OC(C)=O)cc(OC(C)=O)c6c7c(OC(C)=O)cc(OC(C)=O)c8cc1c2c(c87)c(c43)c56 [WIS-4, desoxohypericinhexaacetate]
Average CPM ([4]; 0.05 micrograms): 164,212 CPM
CPM ([4]; 0.05 micrograms): 156,830 CPM and 171,594 CPM
Average CPM ([4]; 0.1 micrograms): 144,512 CPM
CPM ([4]; 0.1 micrograms): 100,504 CPM and 188,520 CPM
Average CPM ([4]; 0.5 micrograms): 208,119 CPM
CPM ([4]; 0.5 micrograms): 196,740 CPM and 219,498 CPM
Average CPM ([4]; 1 microgram): 180,180 CPM
CPM ([4]; 1 microgram): 179,312 CPM and 181,048 CPM
Average CPM ([4]; 2 micrograms): 237,365 CPM
CPM ([4]; 2 micrograms): 236,374 CPM and 238,356 CPM
Average CPM ([4]; 5 micrograms): 164,440 CPM
CPM ([4]; 5 micrograms): 164,780 CPM and 164,100 CPM
Average CPM ([4]; 10 micrograms): 184,852 CPM
CPM ([4]; 10 micrograms): 186,168 CPM and 183,536 CPM
inhibition at 50 ng ([4]; 0.5 h, 0.05 micrograms): 79.9%
inhibition at 0.0001 mg ([4]; 0.5 h, 0.1 micrograms): 82.3%
inhibition at 0.0005 mg ([4]; 0.5 h, 0.5 micrograms): 74.5%
inhibition at 0.001 mg ([4]; 0.5 h, 1 microgram): 77.9%
inhibition at 0.002 mg ([4]; 0.5 h, 2 micrograms): 70.9%
inhibition at 0.005 mg ([4]; 0.5 h, 5 micrograms): 79.9%
inhibition at 0.01 mg ([4]; 0.5 h, 10 micrograms, read-out: Average % Inhibition): 77.4%
EC50 (Friend Leukemia Virus [1]): > 242 µM
EC50 (retroviruses (virions)): 6.9 µM
Average % Inhibition (Friend Virus; 1 microgram): 14.9%
Average Spleen Weight (Friend Virus; 1 microgram): 0.8480
Actual Spleen Weight (Friend Virus; 1 microgram): 0.7790 and 0.8852 and 0.8797
Average % Inhibition (Friend Virus; 10 micrograms): 22.0%
Average Spleen Weight (Friend Virus; 10 micrograms): 0.7921
Actual Spleen Weight (Friend Virus; 10 micrograms): 0.8118 and 0.8625 and 0.7019
Average % Inhibition (Friend Virus; 50 micrograms): 28.8%
Average Spleen Weight (Friend Virus; 50 micrograms): 0.7384
Actual Spleen Weight (Friend Virus; 50 micrograms): 0.7368 and 0.7744 and 0.7041
Average % Inhibition (Friend Virus; 150 micrograms): 46.1%
Average Spleen Weight (Friend Virus; 150 micrograms): 0.6012
Actual Spleen Weight (Friend Virus; 150 micrograms): 0.6214 and 0.6663 and 0.5159
antiviral activity in splenomegaly assay (Friend Virus; Example 8): most active compounds of the group in the splenomegaly assay
loss of antiviral activity relative to parent (retroviruses): loss of activity

Cc1cc(O)c2c(=O)c3c(O)cc(O)c4c5c(O)cc(O)c6c(=O)c7c(O)cc(CO)c8c1c2c(c34)c(c65)c78 [pseudohypericin, Pseudohypericin]
EC50 (Friend Leukemia Virus [1]): 3.8 µM
activity across assays (retroviruses; Example 10): high degree of activity in a more than one assay
Spleen Weights, mean (x) (Friend Leukemia Virus [5]; [6]): 0.3862 grams
Spleen Weights (Friend Leukemia Virus [5]; [6]): 0.3425 grams and 0.3766 grams and 0.4005 grams and 0.4255 grams
% Inhibition (Friend Leukemia Virus [5]; FV + PS 5 mcg per mouse i.v. co-administration): 75.44%
Spleen Weights, mean (x) (Friend Leukemia Virus [5]; [7]): 0.1614 grams
Spleen Weights (Friend Leukemia Virus [5]; [7]): 0.1655 grams and 0.1426 grams and 0.1433 grams and 0.1966 grams
% Inhibition (Friend Leukemia Virus [5]; FV + PS 20 mcg per mouse i.v. co-administration): 100%
Spleen Weights, mean (x) (Friend Leukemia Virus [5]; [8]): 0.1572 grams
Spleen Weights (Friend Leukemia Virus [5]; [8]): 0.1830 grams and 0.1674 grams and 0.1422 grams and 0.1365 grams
% Inhibition (Friend Leukemia Virus [5]; FV + PS 50 mcg per mouse i.v. co-administration): 100%
median inhibition in spleen enlargement (Friend Leukemia Virus [3]; 80 micrograms per mouse single injection, 2×10^5 FFU): 89.6%
inhibition of FV-induced splenomegaly / anti-retroviral activity (Friend Leukemia Virus [3]; Example 1(a)): marked decrease in the spleen enlargement capacity of the Friend Leukemia Virus
% Inhib (Friend Leukemia Virus [3]; [9]): 81.15%
Net change from control (Friend Leukemia Virus [3]; [9]): 0.1292
Spleen weight, mean (x) (Friend Leukemia Virus [3]; [9]): 0.3138 ± 0.1197 gms
% Inhib (Friend Leukemia Virus [3]; [10]): 89.58%
Net change from control (Friend Leukemia Virus [3]; [10]): 0.0714
Spleen weight, mean (x) (Friend Leukemia Virus [3]; [10]): 0.2560 ± 0.0723 gms
Spleen weight (Friend Leukemia Virus [3]; [10]): 0.3457 gms and 0.2784 gms and 0.2208 gms and 0.1791 gms
Spleen weight (Friend Leukemia Virus [3]; [9]): 0.4924 gms and 0.2469 gms and 0.2722 gms and 0.2438 gms
% Inhib (Friend Leukemia Virus [3]; FV 10^6 FFU, PS 80 mcg/mouse): 90.70%
Net change from control (Friend Leukemia Virus [3]; FV 10^6 FFU, PS 80 mcg/mouse): 0.0841
Spleen weight, mean (x) (Friend Leukemia Virus [3]; FV 10^6 FFU, PS 80 mcg/mouse): 0.2687 ± 0.0621 gms
% Inhib (Friend Leukemia Virus [3]; [11]): 93.82%
Net change from control (Friend Leukemia Virus [3]; [11]): 0.0558
Spleen weight, mean (x) (Friend Leukemia Virus [3]; [11]): 0.2404 ± 0.0482 gms
Spleen weight (Friend Leukemia Virus [3]; [11]): 0.2831 gms and 0.2761 gms and 0.2215 gms and 0.1810 gms
Spleen weight (Friend Leukemia Virus [3]; FV 10^6 FFU, PS 80 mcg/mouse): 0.2457 gms and 0.3400 gms and 0.2938 gms and 0.1956 gms
median inhibition of splenomegaly (Friend Leukemia Virus [3]; single injection of 80 micrograms per mouse): 93.8%
median inhibition of splenomegaly (Friend Leukemia Virus [3]; two daily consecutive injections of 80 micrograms per mouse, 2×10^5 FFU): 81.7%
median inhibition of splenomegaly (Friend Leukemia Virus [3]; two daily consecutive injections of 80 micrograms per mouse, 10^6 FFU): 90.7%
